# Measured values: patent US9073853B2, “Cycloalkane carboxylic acid derivatives as CXCR3 receptor antagonists” (Sanofi, priority 2011, dated 2015)
# Where a name gives a salt, the structure may show the parent alone.
# Biological target: human CXCR3-A receptor (Homo sapiens (Human), UniProt P49682)
# Experiment: 125I-CXCL10 competition radioligand binding assay
# Conditions: displacement of 125I-CXCL10 from membranes of CHO cells expressing human recombinant CXCR3-A
# Procedure, shortened: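 Membranes from a recombinant cell line expressing human CXCR3-A (10-20 μg protein) were incubated with 125I-CXCL10 and test compound for 60 min at 25° C, then filtered onto PEI-soaked GF/B filters and gamma-counted. IC50 and Hill slope came from four-parameter nonlinear fitting of competition curves.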
# human CXCR3-A receptor, sequence (P49682 whole entry): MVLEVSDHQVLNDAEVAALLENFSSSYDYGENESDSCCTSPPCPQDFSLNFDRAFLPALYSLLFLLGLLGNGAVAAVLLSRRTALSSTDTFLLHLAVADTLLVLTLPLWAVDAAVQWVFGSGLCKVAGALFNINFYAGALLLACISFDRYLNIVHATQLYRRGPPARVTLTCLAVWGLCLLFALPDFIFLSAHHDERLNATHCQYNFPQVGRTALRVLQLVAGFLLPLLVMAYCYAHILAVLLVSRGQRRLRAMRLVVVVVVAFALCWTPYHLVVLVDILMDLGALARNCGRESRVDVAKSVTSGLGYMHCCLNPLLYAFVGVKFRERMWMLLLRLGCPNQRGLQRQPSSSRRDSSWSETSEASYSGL
row,SMILES,IC50
1,"CCC(c1ccc(Cl)cc1)N(Cc1ccc(OCCN2C(=O)CN(C)C2=O)c(OC)c1)C[C@H]1CC[C@H](C(=O)O)CC1 (stereo partly drawn) [Example 67, trans-4-[([1-(4-Chloro-phenyl)-propyl]-{3-methoxy-4-[2-(3-methyl-2,5-dioxo-imidazolidin-1-yl)-ethoxy]-benzyl}-amino)-methyl]-cyclohexanecarboxylic acid]",0.077 µM
2,"CCC(c1ccc(Cl)cc1)N(Cc1ccc(OCCN2C(=O)CN(C)C2=O)c(C)c1)C[C@H]1CC[C@H](C(=O)O)CC1 (stereo partly drawn) [Example 70, trans-4-[([1-(4-Chloro-phenyl)-propyl]-{3-methyl-4-[2-(3-methyl-2,5-dioxo-imidazolidin-1-yl)-ethoxy]-benzyl}-amino)-methyl]-cyclohexanecarboxylic acid]",0.18 µM
3,"CCc1cc(CN(C[C@H]2CC[C@H](C(=O)O)CC2)C2CCc3cc(F)c(Cl)cc32)ccc1OCCN1C(=O)CCC1=O (stereo partly drawn) [Example 95, trans-4-[((6-Chloro-5-fluoro-indan-1-yl)-{4-[2-(2,5-dioxo-pyrrolidin-1-yl)-ethoxy]-3-ethyl-benzyl}-amino)-methyl]-cyclohexanecarboxylic acid]",4.04 µM
4,"CCc1ccc(C(C)N(Cc2ccc(OCCN3C(=O)CCC3=O)c(OC)c2)C[C@H]2CC[C@H](C(=O)O)CC2)cc1 (stereo partly drawn) [Example 81, trans-4-({{4-[2-(2,5-Dioxo-pyrrolidin-1-yl)-ethoxy]-3-methoxy-benzyl}-[1-(4-ethyl-phenyl)-ethyl]-amino}-methyl)-cyclohexanecarboxylic acid]",0.245 µM
5,"COc1cc(CN(C[C@H]2CC[C@H](C(=O)O)CC2)C(C)c2ccc(Cl)c(F)c2)ccc1OCCN1C(=O)CCC1=O (stereo partly drawn) [Example 82, trans-4-[([1-(4-Chloro-3-fluoro-phenyl)-ethyl]-{4-[2-(2,5-dioxo-pyrrolidin-1-yl)-ethoxy]-3-methoxy-benzyl}-amino)-methyl]-cyclohexanecarboxylic acid]",0.046 µM
6,"COc1cc(CN(C[C@H]2CC[C@H](C(=O)O)CC2)[C@H](C)c2ccc(Cl)cc2)ccc1OCCN1C(=O)CCC1=O [Example 6, trans-4-[([(R)-1-(4-Chloro-phenyl)-ethyl]-{4-[2-(2,5-dioxo-pyrrolidin-1-yl)-ethoxy]-3-methoxy-benzyl}-amino)-methyl]-cyclohexanecarboxylic acid]",0.02 µM
7,"CC(c1ccc2c(c1)CCO2)N(Cc1ccc(CCCN2C(=O)CCC2=O)c(Cl)c1)C[C@H]1CC[C@H](C(=O)O)CC1 (stereo partly drawn) [Example 47, trans-4-({{3-Chloro-4-[3-(2,5-dioxo-pyrrolidin-1-yl)-propyl]-benzyl}-[1-(2,3-dihydro-benzofuran-5-yl)-ethyl]-amino}-methyl)-cyclohexanecarboxylic acid]",0.8 µM
8,"O=C1CCC(=O)N1CCOc1ccc(CN(C[C@H]2CC[C@H](C(=O)O)CC2)C2CCc3cc(F)c(Cl)cc32)cc1F (stereo partly drawn) [Example 97, trans-4-[((6-Chloro-5-fluoro-indan-1-yl)-{4-[2-(2,5-dioxo-pyrrolidin-1-yl)-ethoxy]-3-fluoro-benzyl}-amino)-methyl]-cyclohexanecarboxylic acid]",4.64 µM
9,"COc1cc(CN(C[C@@H]2CC[C@@H](C(=O)O)C2)[C@@H](C)c2ccc(Cl)cc2)ccc1OCCN1C(=O)CCC1=O [Example 99, (1R,3R)-3-[([(S)-1-(4-Chloro-phenyl)-ethyl]-{4-[2-(2,5-dioxo-pyrrolidin-1-yl)-ethoxy]-3-methoxy-benzyl}-amino)-methyl]-cyclopentanecarboxylic acid]",0.223 µM
10,"COc1cc(CN(C[C@H]2CC[C@H](C(=O)O)CC2)C(C)c2ccc3c(c2)CCO3)ccc1/C=C/CN1C(=O)CCC1=O (stereo partly drawn) [Example 35, trans-4-[([1-(2,3-Dihydro-benzofuran-5-yl)-ethyl]-{4-[(E)-3-(2,5-dioxo-pyrrolidin-1-yl)-propenyl]-3-methoxy-benzyl}-amino)-methyl]-cyclohexanecarboxylic acid]",1.43 µM
11,"CCc1cc(CN(C[C@H]2CC[C@H](C(=O)O)CC2)[C@@H](C)c2ccc(Cl)cc2)ccc1OCCN1C(=O)CCC1=O [Example 75, trans-4-[([(S)-1-(4-Chloro-phenyl)-ethyl]-{4-[2-(2,5-dioxo-pyrrolidin-1-yl)-ethoxy]-3-ethyl-benzyl}-amino)-methyl]-cyclohexanecarboxylic acid]",0.045 µM
12,"COc1cc(CN(C[C@H]2CC[C@H](C(=O)O)CC2)[C@@H](C)c2ccc(Cl)cc2)ccc1SCCN1C(=O)CCC1=O [Example 87, trans-4-[([(S)-1-(4-Chloro-phenyl)-ethyl]-{4-[2-(2,5-dioxo-pyrrolidin-1-yl)-ethylsulfanyl]-3-methoxy-benzyl}-amino)-methyl]-cyclohexanecarboxylic acid]",0.019 µM
13,"CCC(c1ccc(Cl)cc1)N(Cc1ccc(OCCn2c(=O)ccn(C)c2=O)c(OC)c1)C[C@H]1CC[C@H](C(=O)O)CC1 (stereo partly drawn) [Example 68, trans-4-[([1-(4-Chloro-phenyl)-propyl]-{3-methoxy-4-[2-(3-methyl-2,6-dioxo-3,6-dihydro-2H-pyrimidin-1-yl)-ethoxy]-benzyl}-amino)-methyl]-cyclohexanecarboxylic acid]",0.143 µM
14,"COc1cc(CN(C[C@H]2CC[C@H](C(=O)O)CC2)[C@H]2CCc3c2ccc(Cl)c3Cl)ccc1OCCN1C(=O)CCC1=O [Example 14, trans-4-[(((S)-4,5-Dichloro-indan-1-yl)-{4-[2-(2,5-dioxo-pyrrolidin-1-yl)-ethoxy]-3-methoxy-benzyl}-amino)-methyl]-cyclohexanecarboxylic acid hydrochloride]",0.025 µM

# More lines, now with the values ahead:
row,IC50,SMILES
1,0.07 µM,"COc1cc(CN(C[C@H]2CC[C@H](C(=O)O)CC2)C(C)c2ccc(C(F)(F)F)cc2)ccc1OCCN1C(=O)CCC1=O (stereo partly drawn) [Example 154, trans-4-({{4-[2-(2,5-Dioxo-pyrrolidin-1-yl)-ethoxy]-3-methoxy-benzyl}-[1-(4-trifluoromethyl-phenyl)-ethyl]-amino}-methyl)-cyclohexanecarboxylic acid]"
2,0.152 µM,"COc1cc(CN(C(C)c2ccc3c(c2)CCO3)[C@H]2C[C@@H](C(=O)O)C2)ccc1OCCn1c(=O)ccn(C)c1=O (stereo partly drawn) [Example 121, cis-3-([1-(2,3-Dihydro-benzofuran-5-yl)-ethyl]-{3-methoxy-4-[2-(3-methyl-2,6-dioxo-3,6-dihydro-2H-pyrimidin-1-yl)-ethoxy]-benzyl}-amino)-cyclobutanecarboxylic acid]"
3,1.09 µM,"COc1cc(CN(C2CC(C(=O)O)C2)C2CCc3cc(Cl)ccc32)ccc1OCCN1C(=O)CCC1=O (stereo not drawn) [Example 127, 3-((5-Chloro-indan-1-yl)-{4-[2-(2,5-dioxo-pyrrolidin-1-yl)-ethoxy]-3-methoxy-benzyl}-amino)-cyclobutanecarboxylic acid]"
4,0.071 µM,"Cc1cc(CN(C[C@H]2CC[C@H](C(=O)O)CC2)[C@H]2CCc3c2ccc(Cl)c3F)ccc1OCCN1C(=O)CN(C)C1=O [Example 157, trans-4-[(((S)-5-Chloro-4-fluoro-indan-1-yl)-{3-methyl-4-[2-(3-methyl-2,5-dioxo-imidazolidin-1-yl)-ethoxy]-benzyl}-amino)-methyl]-cyclohexanecarboxylic acid]"
5,0.254 µM,"COc1cc(CN(C[C@H]2CC[C@H](C(=O)O)CC2)[C@H]2CCc3cc(Cl)ccc32)ccc1OCCN1C(=O)C2CC2C1=O (stereo partly drawn) [Example 146, -4-[(((S)-5-Chloro-indan-1-yl)-{4-[2-(2,4-dioxo-3-aza-bicyclo[3.1.0]hex-3-yl)-ethoxy]-3-methoxy-benzyl}-amino)-methyl]-cyclohexanecarboxylic acid]"
6,0.19 µM,"CCC(c1ccc(Cl)cc1)N(Cc1ccc(OCCN2C(=O)CCC2=O)c(C)c1)C[C@@H]1[C@@H](C(=O)O)C1(C)C (stereo partly drawn) [Example 118, (1R,3R)-3-[([1-(4-Chloro-phenyl)-propyl]-{4-[2-(2,5-dioxo-pyrrolidin-1-yl)-ethoxy]-3-methyl-benzyl}-amino)-methyl]-2,2-dimethyl-cyclopropanecarboxylic acid]"
7,0.07 µM,"COc1cc(CN([C@H]2C[C@@H](C(=O)O)C2)[C@H](C)c2ccc3c(c2)CCO3)ccc1OCCn1c(=O)ccn(C)c1=O [Example 122, cis-3-([(R)-1-(2,3-Dihydro-benzofuran-5-yl)-ethyl]-{3-methoxy-4-[2-(3-methyl-2,6-dioxo-3,6-dihydro-2H-pyrimidin-1-yl)-ethoxy]-benzyl}-amino)-cyclobutanecarboxylic acid]"
